Results reported in patent US20220242827A1, “PHENYLMETHYLPYRAZOLONE COMPOUND HAVING A NOVEL CRYSTAL FORM, AND METHOD FOR PRODUCING SAME” (SIA EMTEKO HOLDING, priority 2019, published 2022).
Converted amounts (≈) assume the structure as drawn.

What was measured:
Format in all cases: physicochemical
Solubility in water = test: Solubility in water
Experimental: The solubility of the obtained samples was checked by dissolving in water with vigorous stirring for 30 minutes at 25° C.

[1] = Storage stability in climate chamber at 25° C. and 60% relative humidity for 24 months; details: for pH: normalization 4.5-5.5; for Quantification: normalization more than 99.0; for Impurity 1: normalization not more than 0.1%; for Sum of impurities: normalization not more than 0.3%; for stability on storage (content of the basic substance, content of impurities, pH): 60% humidity
Experimental: The improved stability of the resulting polymorphic form was confirmed by experiments in a climate chamber at 25° C. and 60% humidity.
Comparison of Critical Quality Indicators of Known and Novel Polymorphic Forms of FMP After 24 Months of Storage at 25° C. and 60% Relative Humidity

[2] = Electrostatic adhesion model experiment in 316L stainless steel tank; details: for surface area of the tank covered with the FMP crystals: 316L stainless steel tank, after thorough mixing and release
Experimental: The following model experiment was performed to test the ability of electrostatic adhesion of the new polymorphic form. The FMP sample was placed in a 316L stainless steel tank, similar to the steel used to make working parts of industrial pharmaceutical equipment. After thorough mixing in the tank, the PMF was released from it and the surface area of the tank covered with the FMP crystals was measured. For the known polymorphic form, this figure was 19.5%, for the new form—12.8%, which is about one third less.

[3] = 24 months at 25° C. and 60% relative humidity

Row | solubility (comparison among the samples) (Solubility in water; among samples #1 to #6) | solubility at 30 min (Solubility in water; water, 25 °C, thermodynamic from solid, dissolving in water with vigorous stirring for 30 minutes at 25° C.) [µg/mL] | Description ([1]; 0 months) | pH ([1]; 0 months) | Quantification ([1]; 0 months) [%] | Impurity 1 ([1]; 0 months) [%] | Sum of impurities ([1]; 0 months) [%] | Description [1, 3] | pH [1, 3] | Quantification [1, 3] [%] | Impurity 1 [1, 3] [%] | Sum of impurities [1, 3] [%] | stability on storage (content of the basic substance, content of impurities, pH) ([1]; 24 months, 25° C.) | stability on storage (content of the basic substance, content of impurities, pH) ([1]; 24 months, 25° C., listed as resulting polymorphic form) | rate of impurity formation ([1]; 24 months, 25° C., 60% relative humidity, versus known form) | surface area of the tank covered with the FMP crystals [2] [%] | electrostatic index (comparison among the samples) ([2]; among samples #1 to #6) | solubility in water (Solubility in water; dissolving in water with vigorous stirring for 30 minutes at 25° C., listed as known forms) | surface area of the tank covered with the FMP crystals ([2]; listed as known polymorphic form) [%] | Compound
1 | best | 300 (≈ 1720 µM) | White | 4.8 | 99.8 | 0.03 | 0.09 | White | 4.8 | 99.7 | 0.04 | 0.10 | more stable | did not change its key characteristics | much lower | 12.8 | best |  |  | CC1=NN(c2ccccc2)C(=O)C1 [A new form of FMP, 1-phenyl-3-methyl-5-pyrazolone]
2 |  |  | White | 4.7 | 99.8 | 0.02 | 0.07 | White | 4.6 | 99.6 | 0.08 | 0.18 |  |  |  |  |  | less than 0.2 mg/ml | 19.5 | CC1=NN(c2ccccc2)C(=O)C1 [Known form of FMP, 1-phenyl-3-methyl-5-pyrazolone, reference compound]
